In paper PMC5880808, “A lever-like transduction pathway for long-distance chemical- and mechano-gating of the mechanosensitive Piezo1 channel” (Nature Communications, 2018):

Key:
[1] = biological target: T1, mPiezo1 (Mus musculus, UniProt E2JF22); test: Fura-2 single-cell Ca2+ imaging of mPiezo1-mCherry-transfected HEK293T cells; format: cell-based; conditions: for Ca2+ response (Fura-2 ratio): mCherry-positive HEK293T cells transfected with mPiezo1-mCherry
T1 construct: The full-length mPiezo1 has 2547 amino acids in each monomer; expressed in transfected cells; host or cells: HEK293T
T1 sequence (E2JF22 whole entry): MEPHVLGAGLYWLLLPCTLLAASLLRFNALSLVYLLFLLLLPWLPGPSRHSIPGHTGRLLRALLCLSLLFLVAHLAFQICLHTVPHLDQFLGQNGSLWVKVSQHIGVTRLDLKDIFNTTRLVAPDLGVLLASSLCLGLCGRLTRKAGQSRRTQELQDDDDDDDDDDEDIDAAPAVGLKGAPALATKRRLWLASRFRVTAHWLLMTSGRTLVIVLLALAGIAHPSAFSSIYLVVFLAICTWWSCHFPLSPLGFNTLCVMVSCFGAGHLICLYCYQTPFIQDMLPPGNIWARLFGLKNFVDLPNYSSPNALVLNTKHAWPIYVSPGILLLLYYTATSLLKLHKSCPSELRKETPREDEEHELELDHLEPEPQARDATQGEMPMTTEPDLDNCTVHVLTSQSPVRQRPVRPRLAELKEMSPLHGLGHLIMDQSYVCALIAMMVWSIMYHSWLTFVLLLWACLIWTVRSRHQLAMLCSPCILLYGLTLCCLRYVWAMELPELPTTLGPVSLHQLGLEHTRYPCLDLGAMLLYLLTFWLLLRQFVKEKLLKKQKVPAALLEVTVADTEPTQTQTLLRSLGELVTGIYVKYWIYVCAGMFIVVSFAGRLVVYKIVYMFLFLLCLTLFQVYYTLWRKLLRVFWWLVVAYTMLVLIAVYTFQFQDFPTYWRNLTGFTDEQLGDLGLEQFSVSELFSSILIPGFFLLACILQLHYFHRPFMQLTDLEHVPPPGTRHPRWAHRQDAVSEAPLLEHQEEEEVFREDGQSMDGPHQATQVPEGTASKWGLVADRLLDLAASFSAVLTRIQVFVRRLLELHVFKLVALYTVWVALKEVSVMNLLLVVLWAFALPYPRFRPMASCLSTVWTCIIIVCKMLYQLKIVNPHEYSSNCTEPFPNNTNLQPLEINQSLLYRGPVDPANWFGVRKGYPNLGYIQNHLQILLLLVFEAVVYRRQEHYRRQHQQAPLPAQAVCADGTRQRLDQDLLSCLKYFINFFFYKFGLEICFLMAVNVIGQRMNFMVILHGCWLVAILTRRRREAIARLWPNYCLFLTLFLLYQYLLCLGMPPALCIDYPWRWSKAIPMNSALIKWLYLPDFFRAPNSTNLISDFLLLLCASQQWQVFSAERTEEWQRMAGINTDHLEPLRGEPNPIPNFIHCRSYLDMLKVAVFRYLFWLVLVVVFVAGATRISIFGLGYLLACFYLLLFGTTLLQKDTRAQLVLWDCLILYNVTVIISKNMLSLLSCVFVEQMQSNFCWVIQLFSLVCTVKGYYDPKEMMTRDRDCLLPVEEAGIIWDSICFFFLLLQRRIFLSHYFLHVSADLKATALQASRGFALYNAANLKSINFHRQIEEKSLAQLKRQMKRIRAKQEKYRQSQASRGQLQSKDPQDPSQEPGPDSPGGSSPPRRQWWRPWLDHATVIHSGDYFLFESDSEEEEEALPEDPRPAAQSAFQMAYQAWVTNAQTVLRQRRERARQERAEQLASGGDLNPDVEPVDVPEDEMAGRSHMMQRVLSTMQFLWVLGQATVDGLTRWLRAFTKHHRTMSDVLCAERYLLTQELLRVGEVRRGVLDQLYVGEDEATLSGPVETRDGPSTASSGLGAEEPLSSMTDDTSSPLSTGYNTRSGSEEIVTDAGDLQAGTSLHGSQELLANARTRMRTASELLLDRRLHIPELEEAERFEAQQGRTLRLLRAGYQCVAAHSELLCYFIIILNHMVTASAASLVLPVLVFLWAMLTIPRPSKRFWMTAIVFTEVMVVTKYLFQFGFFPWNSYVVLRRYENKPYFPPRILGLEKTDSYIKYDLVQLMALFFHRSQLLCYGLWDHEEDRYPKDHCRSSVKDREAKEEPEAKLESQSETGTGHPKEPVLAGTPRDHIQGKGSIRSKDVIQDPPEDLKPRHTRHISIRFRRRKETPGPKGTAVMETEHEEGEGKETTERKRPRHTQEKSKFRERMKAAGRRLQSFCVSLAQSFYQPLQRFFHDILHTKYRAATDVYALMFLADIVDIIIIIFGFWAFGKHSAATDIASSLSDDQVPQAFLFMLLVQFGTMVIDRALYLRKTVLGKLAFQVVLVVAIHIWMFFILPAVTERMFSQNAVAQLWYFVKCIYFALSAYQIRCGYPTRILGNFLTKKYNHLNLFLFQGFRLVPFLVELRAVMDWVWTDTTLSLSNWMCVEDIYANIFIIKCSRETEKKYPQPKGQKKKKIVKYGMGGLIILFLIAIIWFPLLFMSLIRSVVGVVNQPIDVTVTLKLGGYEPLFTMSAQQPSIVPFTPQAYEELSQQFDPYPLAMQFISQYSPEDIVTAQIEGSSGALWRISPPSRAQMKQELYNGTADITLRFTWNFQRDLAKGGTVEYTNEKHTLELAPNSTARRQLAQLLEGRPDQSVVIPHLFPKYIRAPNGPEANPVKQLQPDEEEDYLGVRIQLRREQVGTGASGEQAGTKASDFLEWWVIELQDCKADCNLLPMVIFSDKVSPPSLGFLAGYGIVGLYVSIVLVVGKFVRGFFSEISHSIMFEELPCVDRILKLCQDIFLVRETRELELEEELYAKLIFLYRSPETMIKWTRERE
Procedure: Fura-2 single-cell Ca^2+ imaging was performed according to the previous protocol. In brief, mCherry-Piezo1 cDNA (1 μg)-transfected HEK293T cells were plated onto 12-mm round glass coverslips, which were coated with poly-D-lysine and placed in 24-well plates, and subject to Fura-2 single-cell Ca^2+ imaging about 36 h post transfection. Cells were washed with buffer containing 1× HBSS (1.3 mM Ca^2+) and 10 mM HEPES (pH 7.2), incubated with 2.5 μM Fura-2 and 0.05% Pluronic F-127 (Life Technologies) for 30 min, then washed again with the previously mentioned buffer. The coverslip was mounted into an inverted Nikon-Tie microscope equipped with a CoolSNAP charge-coupled devise (CCD) camera and Lambda XL light box (Sutter Instrument), and mCherry-positive and -negative cells were selected for measurement of the 340/380 ratio with a ×20 objective (numerical aperture 0.75) using the MetaFluor Fluorescence Ratio Imaging software (Molecular Device).

[2] = biological target: T1, mPiezo1; test: Whole-cell poking-induced currents; format: cell-based; conditions: for increase of poking-induced whole-cell currents: mPiezo1-mRuby2-expressing cells, puffing application of 1 mM Jedi, −80 mV; for effect on poking currents and inactivation: compound applied to the intracellular side
Procedure: Protocols for HEK293T cell culture, transient transfection, and patch-clamp experiments with an Axopatch 200B amplifier (Axon Instruments) or HEKA EPC10 were essentially similar to how previously described[6],[8]. […] The extracellular solution was composed of (in mM) 133 NaCl, 3 KCl, 2.5 CaCl2, 1 MgCl2, 10 HEPES (pH 7.3 with NaOH), and 10 glucose. All experiments were carried out at room temperature. Currents were sampled at 20 kHz, filtered at 2 kHz using the Clampex 10.4 software (Axon Instruments) or Patchmaster software. Leak currents before mechanical stimulations were subtracted offline from the current traces.
Mechanical stimulation was delivered to the cell during the patch-clamp recording at an angle of 80° using a fire-polished glass pipette (tip diameter 3–4 μm) as previously described[5],[6]. Downward movement of the probe toward the cell was driven by a Clampex-controlled piezo-electric crystal micro-stage (E625 LVPZT Controller/Amplifier; Physik Instrument). […] The poking distance shown in Fig. 3 includes the initial distance between the poking pipette and the cell, which cannot be accurately controlled, and the applied poking distance controlled by the Clampex-controlled piezo-electric crystal micro-stage. Thus, the actual poking distance on the cell membrane should be equal to the applied poking distance minus the initial distance between the poking pipette and the cell under recording. In the step-wise poking experiment, the patch was readily lost when the cell was broken at the end of the poking.
Stock solutions of Jedi1 (100 mM), Jedi2 (100 mM), and Yoda1 (30 mM) were solubilized in DMSO and diluted to the desired final concentrations as indicated in the figure legends using external or internal solutions. In Figs. 3a, 5b, and 6e, the compound solutions were puffed onto the cells using a multichannel perfusion system (MPS-2, World Precision Instruments) while continuously recording using a gap-free mode. In other conditions, the compounds were directly added to the recording chamber or pipette solution, and the currents were recorded within 10 min. In Figs. 5b and 6e, we used the Piezo1-KO-HEK cell line in which the endogenous Piezo1 gene is disrupted.

[3] = biological target: T2, mPiezo1(1–2190) (Mus musculus, UniProt E2JF22); test: SPR binding to immobilized purified protein; conditions: FPLC fraction of trimeric proteins
T2 construct: N-terminal fragment containing residues 1–2190 [mPiezo1(1–2190)]; GST (PreScission site) (cleaved yes); made in house; host or cells: HEK293T
T2 sequence (E2JF22 1-2190): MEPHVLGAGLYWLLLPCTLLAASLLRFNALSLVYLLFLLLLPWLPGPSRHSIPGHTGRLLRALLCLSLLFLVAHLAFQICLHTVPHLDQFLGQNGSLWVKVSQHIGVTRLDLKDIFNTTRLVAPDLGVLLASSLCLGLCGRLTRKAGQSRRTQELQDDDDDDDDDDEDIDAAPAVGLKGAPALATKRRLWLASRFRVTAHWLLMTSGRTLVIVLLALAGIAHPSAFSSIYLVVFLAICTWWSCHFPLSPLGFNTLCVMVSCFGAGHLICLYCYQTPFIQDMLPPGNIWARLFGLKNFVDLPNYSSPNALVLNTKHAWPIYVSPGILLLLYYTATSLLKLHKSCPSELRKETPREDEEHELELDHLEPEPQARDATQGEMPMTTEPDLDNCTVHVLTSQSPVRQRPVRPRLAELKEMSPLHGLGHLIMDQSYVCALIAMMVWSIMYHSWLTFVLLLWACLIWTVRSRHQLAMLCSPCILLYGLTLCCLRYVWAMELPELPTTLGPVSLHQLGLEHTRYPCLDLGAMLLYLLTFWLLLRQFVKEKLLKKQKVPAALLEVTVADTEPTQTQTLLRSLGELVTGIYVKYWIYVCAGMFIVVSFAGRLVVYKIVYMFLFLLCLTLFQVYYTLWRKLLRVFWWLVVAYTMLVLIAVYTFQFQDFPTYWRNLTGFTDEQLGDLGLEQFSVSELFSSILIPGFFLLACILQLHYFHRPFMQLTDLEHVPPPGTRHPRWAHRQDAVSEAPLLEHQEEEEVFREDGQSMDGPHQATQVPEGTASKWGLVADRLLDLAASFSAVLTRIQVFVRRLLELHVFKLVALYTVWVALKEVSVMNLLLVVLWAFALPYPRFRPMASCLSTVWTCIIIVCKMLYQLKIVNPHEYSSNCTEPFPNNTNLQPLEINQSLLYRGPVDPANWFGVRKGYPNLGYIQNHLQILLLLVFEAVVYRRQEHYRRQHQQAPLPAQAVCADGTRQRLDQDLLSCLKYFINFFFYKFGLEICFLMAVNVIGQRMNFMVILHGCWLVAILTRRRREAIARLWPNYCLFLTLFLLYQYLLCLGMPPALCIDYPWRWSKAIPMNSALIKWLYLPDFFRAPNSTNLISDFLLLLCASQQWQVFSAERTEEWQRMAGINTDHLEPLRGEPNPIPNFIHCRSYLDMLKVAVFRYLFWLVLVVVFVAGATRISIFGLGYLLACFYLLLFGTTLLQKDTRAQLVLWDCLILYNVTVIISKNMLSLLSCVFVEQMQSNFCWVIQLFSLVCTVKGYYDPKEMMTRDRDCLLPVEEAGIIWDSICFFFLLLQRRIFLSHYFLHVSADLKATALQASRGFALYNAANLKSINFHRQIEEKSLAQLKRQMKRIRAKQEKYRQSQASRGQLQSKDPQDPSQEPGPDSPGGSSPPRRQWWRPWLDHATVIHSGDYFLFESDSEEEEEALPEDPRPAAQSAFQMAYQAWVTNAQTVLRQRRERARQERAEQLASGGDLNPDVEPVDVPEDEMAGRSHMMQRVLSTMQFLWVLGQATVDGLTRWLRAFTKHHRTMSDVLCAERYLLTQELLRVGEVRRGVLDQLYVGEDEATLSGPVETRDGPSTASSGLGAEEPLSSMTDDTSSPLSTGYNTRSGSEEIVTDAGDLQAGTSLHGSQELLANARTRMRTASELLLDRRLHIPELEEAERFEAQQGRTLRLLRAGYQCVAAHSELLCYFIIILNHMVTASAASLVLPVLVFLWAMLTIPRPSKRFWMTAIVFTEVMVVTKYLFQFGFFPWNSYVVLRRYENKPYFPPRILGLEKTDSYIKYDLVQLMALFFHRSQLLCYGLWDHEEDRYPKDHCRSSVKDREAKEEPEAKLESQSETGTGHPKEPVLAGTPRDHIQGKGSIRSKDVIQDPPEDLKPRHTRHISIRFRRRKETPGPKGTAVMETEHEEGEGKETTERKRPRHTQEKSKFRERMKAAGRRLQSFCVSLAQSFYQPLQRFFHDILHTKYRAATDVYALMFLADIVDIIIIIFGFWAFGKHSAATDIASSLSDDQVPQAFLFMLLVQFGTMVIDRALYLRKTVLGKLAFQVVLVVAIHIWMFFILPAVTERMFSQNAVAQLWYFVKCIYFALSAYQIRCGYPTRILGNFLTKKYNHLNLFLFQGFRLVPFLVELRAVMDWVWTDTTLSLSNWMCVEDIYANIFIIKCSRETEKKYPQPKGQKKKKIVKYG
From the text: Since Jedi1/2 act through the extracellular side of Piezo1, we asked if it might bind to the C-terminal extracellular domain (CED; 2214–2457) that trimerizes to form the extracellular Cap-structure of the central ion-conducting pore module (Fig. 1)[8]. However, none of Jedi1/2, Yoda1, and the control compound bound to the purified CED proteins (without the use of the C12E10 detergent since they are soluble proteins; Fig. 4a–h). We next purified the large N-terminal fragment containing residues 1–2190 [mPiezo1(1–2190)] using the same purification procedure for mPiezo1. […] We used the FPLC fraction corresponding to the trimeric proteins (peak 2 of Supplementary Fig. 2d) for SPR binding assay. […] Given that Jedi1/2 function through the extracellular side, we propose that Jedi1/2 bind to the extracellular loop regions of the blade. The distant location of the Jedi action region relative to the pore indicates a distinct long-distance allosteric gating of Piezo1.
(§1) Real-time binding and analysis by SPR were conducted on BIAcore T200 instrument (GE Healthcare) at 25 °C. Proteins were immobilized on a research-grade CM5 sensor chip by amine-coupling methods. During the pH scouting process, 10 mM sodium acetate at various pH including 4.0, 4.5, 5.0, and 5.5 and protein concentrations varying between 10 and 100 μg/ml were screened before immobilization. Except pH 4.5 for mPiezo1-(1–2190), pH 5.0 was used for all other proteins, including mPiezo1, CED, Δ15-16, and Δ19-20. All proteins were diluted to 50 μg/ml in buffer containing 10 mM sodium acetate at the abovementioned pH, 0.026% C12E10 detergent, and 150 mM NaCl, except that the soluble CED proteins, which were diluted in 150 mM NaCl without detergent. […]
(§2) For data collection, compounds at various concentrations were diluted in a running buffer containing 1× PBS, 0.026% detergent C12E10, and 0.05% Surfactant P20 (GE Healthcare Bio-Sciences AB) and injected over the flow cells with at a 30 μl/min flow rate. […] Data were analyzed with the BIAcore T200 evaluation software by fitting to a 1:1 affinity-binding model.

[4] = biological target: T1, mPiezo1; test: SPR binding to immobilized purified protein; conditions: immobilized mPiezo1 in C12E10, 25 °C
Procedure: We next employed the surface plasmon resonance (SPR) binding assay to examine whether Jedi1/2 bind directly to purified mPiezo1 proteins solubilized in the C12E10 detergent (Supplementary Fig. 2a, b). Based on an amine-coupling method, Piezo1 proteins (50 μg/ml) were optimally immobilized onto a research-grade CM5 sensor chip by using a buffer containing 10 mM sodium acetate (pH 5.0), 150 mM NaCl, 0.026% C12E10, and 0.05% Surfactant P20. […] Given the hydrophilic nature of Jedi1/2, it is possible that the amine-based attachment of the purified Piezo1 protein to the SPR sensor chip might affect the binding. […] Nevertheless, given their low binding affinity, we could not totally exclude the possibility that Jedi1/2 might indirectly activate Piezo1 in the cell.
as §1, with “detergent. During the immobilization process, the CM5 sensor was activated with NHS first, allowing the amine-containing proteins to be coupled to the sensor through NHS.” for “detergent.”
as §2

[5] = compound applied to the extracellular side

Row | Compound | Ca2+ response (Fura-2 ratio) [1] | increase of poking-induced whole-cell currents [2] [folds] | binding to mPiezo1(1–2190) proteins (SPR) [3] | Kd [4] [µM] | time course of the induced Ca2+ response ([1]; Fura-2 single-cell imaging) | effect on poking currents and inactivation [2] | inactivation tau of poking-induced currents [2, 5] | poking-induced maximal currents (Imax) [2, 5]
1 | Cc1oc(-c2cccs2)cc1C(=O)O [Jedi2] | caused an increase in Ca^2+ | 5.4 ± 0.7 | virtually identical fashion as to mPiezo1 | 2770 ± 178 | – | – | – | –
2 | Clc1cccc(Cl)c1CSc1nnc(-c2cnccn2)s1 [Yoda1, reference compound] | also responded to Yoda1 | – | virtually identical fashion as to mPiezo1 | 45.6 ± 14.3 | slow activation, no decay, and poor reversibility | remained effective in enhancing the poking currents and slowing the inactivation | – | –
3 | Cc1oc(-c2ccccc2)cc1C(=O)O [Jedi1] | caused an increase in Ca^2+ | 3.8 ± 0.5 | virtually identical fashion as to mPiezo1 | 2750 ± 425 | – | had no effect | slowed the inactivation tau | significantly enhanced
